Data on eleven compounds can be found in US9115127B2 (AMGEN INC., priority 2010, dated 2015).

In this experiment the target is T1, wild-type human ALK (cytoplasmic domain, amino acids 1058-1620, N-terminal GST fusion) (Homo sapiens, UniProt Q9UM73).
T1 construct: The cytoplasmic domain (amino acids 1058-1620) of wild-type human ALK; GST (N); made in house; host or cells: SF9 insect cells
T1 sequence (Q9UM73 1058-1620): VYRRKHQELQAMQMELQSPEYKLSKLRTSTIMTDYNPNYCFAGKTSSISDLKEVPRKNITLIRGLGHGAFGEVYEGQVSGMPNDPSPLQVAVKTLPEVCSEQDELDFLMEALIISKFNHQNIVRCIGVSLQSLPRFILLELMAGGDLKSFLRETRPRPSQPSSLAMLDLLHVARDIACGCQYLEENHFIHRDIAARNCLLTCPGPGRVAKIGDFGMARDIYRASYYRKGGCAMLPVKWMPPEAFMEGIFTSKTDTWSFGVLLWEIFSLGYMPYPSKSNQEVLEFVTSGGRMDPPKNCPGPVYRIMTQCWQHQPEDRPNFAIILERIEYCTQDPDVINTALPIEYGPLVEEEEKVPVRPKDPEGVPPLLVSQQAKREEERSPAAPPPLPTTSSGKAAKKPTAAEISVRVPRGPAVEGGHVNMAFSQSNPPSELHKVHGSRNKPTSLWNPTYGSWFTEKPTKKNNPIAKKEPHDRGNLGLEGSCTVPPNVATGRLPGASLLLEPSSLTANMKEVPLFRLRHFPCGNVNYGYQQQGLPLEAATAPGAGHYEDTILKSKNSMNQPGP
Kind of experiment: ALK Inhibition in Enzyme Assay (Lance TR-FRET kinase assay). The experiment is classed as biochemical. Put shortly:
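TR-FRET read-out (Eu-W1024 PT66 anti-phosphotyrosine plus streptavidin-allophycocyanin, 320 nm excitation) quantified biotinylated peptide phosphorylation by the purified kinase. Reaction ran 90 minutes at room temperature before quenching with 20 mM EDTA in Tris pH 7.5 buffer with NaCl, BSA and Tween-20.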
Take `C[C@@H]1CNCCN1C(=O)[C@H]1CC[C@@H](n2/c(=N/C(=O)c3ccc(F)cc3)[nH]c3cnc(OCCN4CCCCC4)cc32)CC1` [Example 59, (E)-4-Fluoro-N-(1-(cis-4-((R)-2-methylpiperazine-1-carbonyl)cyclohexyl)-6-(2-(piperidin-1-yl)ethoxy)-1H-imidazo[4,5-c]pyridin-2(3H)-ylidene)benzamide]: the IC50 (commonly the midpoint of a concentration-inhibition curve) is below 50 nM.
Next, `C[C@H]1CN(C(=O)[C@H]2CC[C@@H](n3/c(=N/C(=O)c4ccc(F)cc4)[nH]c4cnc(OCCN5CCCCC5)cc43)CC2)CCN1C(=O)OC(C)(C)C` [Example 60, (S)-tert-Butyl 4-(cis-4-((E)-2-(4-fluorobenzoylimino)-6-(2-(piperidin-1-yl)ethoxy)-2,3-dihydro-1H-imidazo[4,5-c]pyridin-1-yl)cyclohexanecarbonyl)-2-methylpiperazine-1-carboxylate]: 1000 to 5000 nM.
`C[C@H]1CN(C(=O)[C@H]2CC[C@@H](n3/c(=N/C(=O)c4ccc(F)cc4)[nH]c4cnc(OCCN5CCCCC5)cc43)CC2)CCN1` [Example 61, (E)-4-Fluoro-N-(1-(cis-4-((S)-3-methylpiperazine-1-carbonyl)cyclohexyl)-6-(2-(piperidin-1-yl)ethoxy)-1H-imidazo[4,5-c]pyridin-2(3H)-ylidene)benzamide]: the IC50 is below 50 nM.
Next, `C[C@H]1CN(C(=O)[C@H]2CC[C@@H](n3/c(=N/C(=O)c4ccccc4)[nH]c4cnc(OCCN5CCCCC5)cc43)CC2)CCN1` [Example 62]: 50 to 100 nM; `CC(C)NC(=O)[C@]1(O)CC[C@H](n2/c(=N/C(=O)c3ccc(F)cc3)[nH]c3cnc(OCCN4CCCCC4)cc32)CC1` [Example 63, (E)-4-Fluoro-N-(1-(trans-4-hydroxy-4-(isopropylcarbamoyl)cyclohexyl)-6-(2-(piperidin-1-yl)ethoxy)-1H-imidazo[4,5-c]pyridin-2(3H)-ylidene)benzamide]: 50 to 100 nM; `CC(C)(C)OC(=O)N1CCC(n2/c(=N/C(=O)c3ccccc3)[nH]c3cnc(OCCN4CCCCC4)cc32)CC1` [Example 64, (E)-tert-Butyl 4-(2-(benzoylimino)-6-(2-(piperidin-1-yl)ethoxy)-2,3-dihydro-1H-imidazo[4,5-c]pyridin-1-yl)piperidine-1-carboxylate]: 100 to 1000 nM.
As for `O=C(/N=c1\[nH]c2cnc(OCCN3CCCCC3)cc2n1C1CCNCC1)c1ccccc1` [Example 65, (E)-N-(6-(2-(Piperidin-1-yl)ethoxy)-1-(piperidin-4-yl)-1H-imidazo[4,5-c]pyridin-2(3H)-ylidene)benzamide], the figure is 1000 to 5000 nM; as for `CCS(=O)(=O)N1CCC(n2/c(=N/C(=O)c3ccccc3)[nH]c3cnc(OCCN4CCCCC4)cc32)CC1` [Example 66, (E)-N-(1-(1-(Ethylsulfonyl)piperidin-4-yl)-6-(2-(piperidin-1-yl)ethoxy)-1H-imidazo[4,5-c]pyridin-2(3H)-ylidene)benzamide], 100 to 1000 nM.
Next, `CNS(=O)(=O)N1CCC(n2/c(=N/C(=O)c3ccccc3)[nH]c3cnc(OCCN4CCCCC4)cc32)CC1` [Example 67, (E)-N-(1-(1-(N-Methylsulfamoyl)piperidin-4-yl)-6-(2-(piperidin-1-yl)ethoxy)-1H-imidazo[4,5-c]pyridin-2(3H)-ylidene)benzamide]: 100 to 1000 nM; `CC(C)CN1CCC(n2/c(=N/C(=O)c3ccccc3)[nH]c3cnc(OCCN4CCCCC4)cc32)CC1` [Example 68, (E)-N-(1-(1-Isobutylpiperidin-4-yl)-6-(2-(piperidin-1-yl)ethoxy)-1H-imidazo[4,5-c]pyridin-2(3H)-ylidene)benzamide]: 5000 to 10000 nM; `CC(C)S(=O)(=O)N1CCC(n2/c(=N/C(=O)c3ccccc3)[nH]c3cnc(OCCN4CCCCC4)cc32)CC1` [Example 69, (E)-N-(1-(1-(Isopropylsulfonyl)piperidin-4-yl)-6-(2-(piperidin-1-yl)ethoxy)-1H-imidazo[4,5-c]pyridin-2(3H)-ylidene)benzamide]: 100 to 1000 nM.
